Key:
giant foxtail [1] = experiment: Test A pre-/postemergence greenhouse test; format: in vivo, Setaria faberi; settings: for Plant response rating, Foxtail, Giant: 0 to 100 scale where 0 is no effect and 100 is complete control; for Foxtail, Giant plant response rating: 0 to 100 scale
Outline: (§1)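 Planting was into mixed loam soil and sand; preemergence treatment followed as a directed soil spray. Concurrently, emerged plants (one- to two-leaf, 2–10 cm) received postemergence applications of identically formulated compound (non-phytotoxic solvent, surfactant). After approximately ten days under greenhouse conditions, injury was judged by eye against untreated plants.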

lambsquarters = experiment: Test C pre-/postemergence test; format: in vivo, Chenopodium album; settings: for Plant response rating, Lambsquarters: scale 0 to 100, 0 no effect, 100 complete control
Outline: (§2)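 Seeds were planted and treated preemergence with test chemical in a non-phytotoxic solvent mixture containing surfactant. Postemergence applications of the same formulation went onto plants 2 to 18 cm tall (1- to 4-leaf stage). A dash marks no test result.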

Surinam grass = experiment: Test C pre-/postemergence test; format: in vivo, Brachiaria decumbens
Outline: as §2

giant foxtail [2] = experiment: Test C pre-/postemergence test; format: in vivo, Setaria faberii
Outline: as §2

eastern black nightshade = experiment: Test C pre-/postemergence test; format: in vivo, Solanum ptycanthum
Outline: as §2

woolly cupgrass = experiment: Test C pre-/postemergence test; format: in vivo, Eriochloa villosa
Outline: as §2

blackgrass = experiment: Test C pre-/postemergence test; format: in vivo, Alopecurus myosuroides
Outline: as §2

wild oat = experiment: Test C pre-/postemergence test; format: in vivo, Avena fatua
Outline: as §2

[3] = system: common (oilseed) sunflower; experiment: Test C pre-/postemergence test; format: in vivo, Helianthus annuus
Outline: as §2

velvetleaf = experiment: Test C pre-/postemergence test; format: in vivo, Abutilon theophrasti
Outline: as §2

wheat [4] = experiment: Test A pre-/postemergence greenhouse test; format: in vivo, Triticum aestivum; settings: for Plant response rating, Wheat: 0 to 100 scale where 0 is no effect and 100 is complete control; for Wheat plant response rating: 0 to 100 scale
Outline: as §1

cocklebur = experiment: Test C pre-/postemergence test; format: in vivo, Xanthium strumarium
Outline: as §2

common ragweed = experiment: Test C pre-/postemergence test; format: in vivo, Ambrosia elation
Outline: as §2

wheat [5] = experiment: Test C pre-/postemergence test; format: in vivo, Triticum aestivum
Outline: as §2

morningglory = experiment: Test A pre-/postemergence greenhouse test; format: in vivo, Ipomoea spp.; settings: for Plant response rating, Morningglory: 0 to 100 scale where 0 is no effect and 100 is complete control; for Morningglory plant response rating: 0 to 100 scale
Outline: as §1

kochia = experiment: Test C pre-/postemergence test; format: in vivo, Kochia scoparia
Outline: as §2

downy brome = experiment: Test C pre-/postemergence test; format: in vivo, Bromus tectorum
Outline: as §2

redroot pigweed = experiment: Test A pre-/postemergence greenhouse test; format: in vivo, Amaranthus retroflexus; settings: for Plant response rating, Pigweed: 0 to 100 scale where 0 is no effect and 100 is complete control; for Pigweed plant response rating: 0 to 100 scale
Outline: as §1

[6] = Postemergence, 500 g ai/ha, 0 is no effect, 100 is complete control
[7] = Preemergence, 125 g ai/ha, 0 no effect, 100 complete control
[8] = 62 g ai/ha, Preemergence, scale 0 to 100
[9] = 125 g ai/ha, preemergence, scale 0 (no effect) to 100 (complete control)
[10] = preemergence, 250 g ai/ha, scale 0 (no effect) to 100 (complete control)
[11] = Postemergence, 125 g ai/ha, scale 0 to 100, 0 no effect, 100 complete control
[12] = Postemergence, 250 g ai/ha, scale 0 to 100, 0 no effect, 100 complete control
[13] = Preemergence, 31 g ai/ha, scale 0 to 100 (0 no effect, 100 complete control)

## Cn1nc(C(F)(F)C(F)(F)F)c(C[S+]([O-])c2cccc[n+]2[O-])c1OCC(F)(F)F (stereo not shown) [Compound 79]
Giant foxtail [1]; Postemergence, 125 g ai/ha
  Plant response rating, Foxtail, Giant: 80
Giant foxtail [1]; [6]
  Foxtail, Giant plant response rating: 90
Giant foxtail [1]; [7]
  Foxtail, Giant plant response rating: 90
Giant foxtail [1]; Preemergence, 500 g ai/ha
  Plant response rating, Foxtail, Giant: 100
lambsquarters; [8]
  Lambsquarters plant response rating: 90
lambsquarters; [9]
  Lambsquarters plant response rating: 100
lambsquarters; Postemergence, 62 g ai/ha
  Plant response rating (0 to 100), Lambsquarters: 0
lambsquarters; Postemergence, 125 g ai/ha
  Plant response rating, Lambsquarters: 0
lambsquarters; Postemergence, 250 g ai/ha
  Plant response rating, Lambsquarters: 70
lambsquarters; [10]
  Lambsquarters plant response rating: 100
Surinam grass; [8]
  Surinam Grass plant response rating: 85
Surinam grass; [9]
  Surinam Grass plant response rating: 98
Surinam grass; Postemergence, 31 g ai/ha
  Plant response rating (0 to 100), Surinam Grass: 0
Surinam grass; Postemergence, 62 g ai/ha
  Plant response rating (0 to 100), Surinam Grass: 0
Surinam grass; [11]
  Plant response rating, Surinam Grass: 30
Surinam grass; [12]
  Plant response rating, Surinam Grass: 85
Surinam grass; [13]
  Plant response rating, Surinam Grass: 60
Surinam grass; [10]
  Surinam Grass plant response rating: 100
Giant foxtail [2]; [8]
  Foxtail, Giant plant response rating: 70
Giant foxtail [2]; [9]
  Foxtail, Giant plant response rating: 80
Giant foxtail [2]; Postemergence, 31 g ai/ha
  Plant response rating (0 to 100), Foxtail, Giant: 0
Giant foxtail [2]; Postemergence, 62 g ai/ha
  Plant response rating (0 to 100), Foxtail, Giant: 0
Giant foxtail [2]; [11]
  Plant response rating, Foxtail, Giant: 50
Giant foxtail [2]; [12]
  Plant response rating, Foxtail, Giant: 70
Giant foxtail [2]; [13]
  Plant response rating, Foxtail, Giant: 70
Giant foxtail [2]; [10]
  Foxtail, Giant plant response rating: 100
Eastern black nightshade; [8]
  Nightshade plant response rating: 50
Eastern black nightshade; [9]
  Nightshade plant response rating: 50
Eastern black nightshade; [13]
  Plant response rating, Nightshade: 40
Eastern black nightshade; [10]
  Nightshade plant response rating: 100
Woolly cupgrass; [8]
  Cupgrass, Woolly plant response rating: 50
Woolly cupgrass; [9]
  Cupgrass, Woolly plant response rating: 98
Woolly cupgrass; Postemergence, 31 g ai/ha
  Plant response rating (0 to 100), Cupgrass, Woolly: 0
Woolly cupgrass; Postemergence, 62 g ai/ha
  Plant response rating (0 to 100), Cupgrass, Woolly: 0
Woolly cupgrass; [11]
  Plant response rating, Cupgrass, Woolly: 40
Woolly cupgrass; [12]
  Plant response rating, Cupgrass, Woolly: 50
Woolly cupgrass; [13]
  Plant response rating, Cupgrass, Woolly: 0
Woolly cupgrass; [10]
  Cupgrass, Woolly plant response rating: 100
blackgrass; [8]
  Blackgrass plant response rating: 100
blackgrass; [9]
  Blackgrass plant response rating: 100
blackgrass; Postemergence, 31 g ai/ha
  Plant response rating (0 to 100), Blackgrass: 70
blackgrass; Postemergence, 62 g ai/ha
  Plant response rating (0 to 100), Blackgrass: 80
blackgrass; [11]
  Plant response rating, Blackgrass: 90
blackgrass; [12]
  Plant response rating, Blackgrass: 90
blackgrass; [13]
  Plant response rating, Blackgrass: 98
blackgrass; [10]
  Blackgrass plant response rating: 100
Wild oat; [8]
  Oat, Wild plant response rating: 70
Wild oat; [9]
  Oat, Wild plant response rating: 85
Wild oat; Postemergence, 31 g ai/ha
  Plant response rating (0 to 100), Oat, Wild: 0
Wild oat; Postemergence, 62 g ai/ha
  Plant response rating (0 to 100), Oat, Wild: 35
Wild oat; [11]
  Plant response rating, Oat, Wild: 40
Wild oat; [12]
  Plant response rating, Oat, Wild: 50
Wild oat; [13]
  Plant response rating, Oat, Wild: 70
Wild oat; [10]
  Oat, Wild plant response rating: 90
[3]; [8]
  Sunflower plant response rating: 60
[3]; [9]
  Sunflower plant response rating: 100
[3]; [13]
  Plant response rating, Sunflower: 40
[3]; [10]
  Sunflower plant response rating: 100
velvetleaf; [8]
  Velvetleaf plant response rating: 100
velvetleaf; [9]
  Velvetleaf plant response rating: 100
velvetleaf; Postemergence, 31 g ai/ha
  Plant response rating (0 to 100), Velvetleaf: 0
velvetleaf; Postemergence, 62 g ai/ha
  Plant response rating (0 to 100), Velvetleaf: 0
velvetleaf; [11]
  Plant response rating, Velvetleaf: 50
velvetleaf; [12]
  Plant response rating, Velvetleaf: 70
velvetleaf; [13]
  Plant response rating, Velvetleaf: 100
velvetleaf; [10]
  Velvetleaf plant response rating: 100
Wheat [4]; Postemergence, 125 g ai/ha
  Plant response rating, Wheat: 50
Wheat [4]; [6]
  Wheat plant response rating: 70
Wheat [4]; [7]
  Wheat plant response rating: 80
Wheat [4]; Preemergence, 500 g ai/ha
  Plant response rating, Wheat: 100
cocklebur; [8]
  Cocklebur plant response rating: 0
cocklebur; [9]
  Cocklebur plant response rating: 50
cocklebur; Postemergence, 31 g ai/ha
  Plant response rating (0 to 100), Cocklebur: 0
cocklebur; Postemergence, 62 g ai/ha
  Plant response rating (0 to 100), Cocklebur: 0
cocklebur; [11]
  Plant response rating, Cocklebur: 0
cocklebur; [12]
  Plant response rating, Cocklebur: 0
cocklebur; [13]
  Plant response rating, Cocklebur: 0
cocklebur; [10]
  Cocklebur plant response rating: 50
Common ragweed; [8]
  Ragweed plant response rating: 50
Common ragweed; [9]
  Ragweed plant response rating: 100
Common ragweed; Postemergence, 31 g ai/ha
  Plant response rating (0 to 100), Ragweed: 0
Common ragweed; Postemergence, 62 g ai/ha
  Plant response rating (0 to 100), Ragweed: 40
Common ragweed; [11]
  Plant response rating, Ragweed: 45
Common ragweed; [12]
  Plant response rating, Ragweed: 50
Common ragweed; [13]
  Plant response rating, Ragweed: 50
Common ragweed; [10]
  Ragweed plant response rating: 100
Wheat [5]; [8]
  Wheat plant response rating: 10
Wheat [5]; [9]
  Wheat plant response rating: 60
Wheat [5]; Postemergence, 31 g ai/ha
  Plant response rating (0 to 100), Wheat: 0
Wheat [5]; Postemergence, 62 g ai/ha
  Plant response rating (0 to 100), Wheat: 30
Wheat [5]; [11]
  Plant response rating, Wheat: 60
Wheat [5]; [12]
  Plant response rating, Wheat: 80
Wheat [5]; [13]
  Plant response rating, Wheat: 10
Wheat [5]; [10]
  Wheat plant response rating: 80
morningglory; Postemergence, 125 g ai/ha
  Plant response rating, Morningglory: 50
morningglory; [6]
  Morningglory plant response rating: 100
morningglory; [7]
  Morningglory plant response rating: 60
morningglory; Preemergence, 500 g ai/ha
  Plant response rating, Morningglory: 90
kochia; [8]
  Kochia plant response rating: 100
kochia; [9]
  Kochia plant response rating: 100
kochia; Postemergence, 31 g ai/ha
  Plant response rating (0 to 100), Kochia: 0
kochia; Postemergence, 62 g ai/ha
  Plant response rating (0 to 100), Kochia: 0
kochia; [11]
  Plant response rating, Kochia: 0
kochia; [12]
  Plant response rating, Kochia: 0
kochia; [13]
  Plant response rating, Kochia: 100
kochia; [10]
  Kochia plant response rating: 100
Downy brome; [8]
  Bromegrass, Downy plant response rating: 50
Downy brome; [9]
  Bromegrass, Downy plant response rating: 100
Downy brome; Postemergence, 31 g ai/ha
  Plant response rating (0 to 100), Bromegrass, Downy: 0
Downy brome; Postemergence, 62 g ai/ha
  Plant response rating (0 to 100), Bromegrass, Downy: 0
Downy brome; [11]
  Plant response rating, Bromegrass, Downy: 20
Downy brome; [12]
  Plant response rating, Bromegrass, Downy: 60
Downy brome; [13]
  Plant response rating, Bromegrass, Downy: 50
Downy brome; [10]
  Bromegrass, Downy plant response rating: 100
Redroot pigweed; Postemergence, 125 g ai/ha
  Plant response rating, Pigweed: 30
Redroot pigweed; [6]
  Pigweed plant response rating: 70
Redroot pigweed; [7]
  Pigweed plant response rating: 90
Redroot pigweed; Preemergence, 500 g ai/ha
  Plant response rating, Pigweed: 100

Reference: US20100298141A1, “SUBSTITUTED PYRIDINE N-OXIDE HERBICIDES” (E. I. DU PONT DE NEMOURS AND COMPANY, priority 2007, published 2010)
